# Test results published in US8518953B2, “Aminopyrimidines useful as inhibitors of protein kinases” (Vertex Pharmaceuticals Incorporated, priority 2007, dated 2013).
# How the values were obtained:
# [1] = target: T1, GSK3α TYR 279 (Homo sapiens, UniProt P49840); assay: GSK-3α p-TYR Inhibition Assay (western blotting of Jurkat cells); format: cell-based; conditions: western blot, read-out: GSK3a pTYR 279: IC50
# T1 construct: western blotting of Jurkat cells dosed with the compounds; endogenous in cells; host or cells: Jurkat cells
# Procedure: Compounds are screened for their ability to inhibit the phosphorylation of tyrosine (TYR) residues through the use of western blotting of Jurkat cells dosed with the compounds. The phosphorylation of the specific TYR residues tested are GSK3α TYR 279 and GSK3β TYR 216.
# Jurkat cells are seeded at a density of 2×10^5 cells/well in a 12 well dish in starvation media (RPMI+1% FBS+P/S). Following starvation for 16 hours, the compound is dosed into each well at a final DMSO concentration of 0.3% and cells are incubated o/n at 37° C. 5% CO2. The next day, cells are spun down at 1500 rpm, washed with PBS, and lysed in 100 uL Laemli sample buffer with β-mercaptoethanol.
# 15 microliters (uL) of cell lysates are loaded onto a 10% tris-glycine gel and run at 120 v for 2 hours or until dye front runs off of the gel. The protein is then transferred onto a PVDF membrane at 100 v for 60 min. PBST (PBS containing 0.1% Tween 20, such as 1 ml Tween per 1 L of PBS) is then made up and used for all washes and antibody incubations. The blot is blocked in 5% nonfat milk PBST for one hour.
# The primary antibody (GSK-3α/β pTYR 279/216 at 1:1000 dilution Upstate cat#05-413) is then added in […] PBST overnight at 4° C. with gentle rocking. The blot is then washed in PBST for 5 min. This is then repeated 4 times. […]
# [2] = test system: rats subjected to MCAO; assay: Post Stroke Recovery MCAO Model: Forelimb Inhibition (Swimming Test); format: in vivo, rat; conditions: 7 and 14 days after stroke
# Text: Adult male Wistar rats are pre-trained on a battery of behavioral tests including: tray reach, […], forelimb asymmetry (cylinder bracing), forelimb inhibition (swim test) (see below for detailed description of tests). Following pre-stroke behavioral assessment the rats receive surgery during which a stroke is induced. The rats are pseudo-randomly divided into 5 equal groups (n=12) ensuring an equal number of right and left strokes within each treatment group. The first group receives sham surgery with vehicle as treatment. Administration of the test compound and vehicle (dose, route, timing) is determined by the sponsor. The core body temperature is maintained at 37° C. (+/-1°). Following surgery all animals are behaviorally assessed 1, 7, and 14 d post-stroke. At the conclusion of behavioral assessment all rats undergo an MRI to determine infarct volume. Group behavioral performance and stroke volume are compared between groups using one way analysis of variance to determine therapeutic benefit of the compound in rate and extent of recovery of function following MCAO stroke. […] Rectal temperature is monitored and maintained at 37 C+/-1° C. for the duration of the surgery and until the rat is awake and mobile (approximately 3 hr). […] Inhibition of the forelimbs is assessed by filming animals during swimming. […] Only the mid 80% of the length is scored. […]
# T1 sequence (P49840 whole entry): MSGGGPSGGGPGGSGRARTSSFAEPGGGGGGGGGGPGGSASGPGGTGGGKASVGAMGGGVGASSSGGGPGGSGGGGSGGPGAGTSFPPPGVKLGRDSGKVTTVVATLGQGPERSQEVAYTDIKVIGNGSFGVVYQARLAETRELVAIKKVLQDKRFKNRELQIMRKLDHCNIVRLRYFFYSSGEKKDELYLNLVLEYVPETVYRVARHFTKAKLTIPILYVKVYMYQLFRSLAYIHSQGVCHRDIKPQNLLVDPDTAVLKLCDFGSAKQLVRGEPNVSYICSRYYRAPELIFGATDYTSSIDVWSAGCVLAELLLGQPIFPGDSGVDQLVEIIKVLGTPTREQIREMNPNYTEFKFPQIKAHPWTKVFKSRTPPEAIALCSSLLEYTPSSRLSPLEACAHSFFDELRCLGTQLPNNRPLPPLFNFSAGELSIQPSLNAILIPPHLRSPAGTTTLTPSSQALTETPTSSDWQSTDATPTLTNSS
smiles,measurement,setting,value
"Cc1nc(-c2ccccc2Cl)nc(Nc2n[nH]c3ncc(F)cc23)c1C [Compound I-1, N-(2-(2-chlorophenyl)-5,6-dimethylpyrimidin-4-yl)-5-fluoro-1H-pyrazolo[3,4-b]pyridin-3-amine]",IC50,[1],< 0.5 nM
same,deficit in forelimb inhibition (swimming test),[2],significantly ameliorated this deficit
